Here are results for 17 compounds from patent publication US10463651B2, “3-(1H-pyrrolo[3,2-C]pyridin-2-YL)-1H-indazoles and therapeutic uses thereof” (Samumed, LLC, priority 2015, dated 2019).

What all share (type): cell-based
For experiment [1], the system named is SW480 colon cancer cells. The experiment can be described thus: Cell viability assay (CellTiter-Blue). As to conditions: Homo sapiens; for EC50: 96 h, SW480 cell viability, four days, CellTiter-Blue; for inhibition at 10 µM: SW480, 96 h, read-out: percent inhibition at 10 μM. The essentials:
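Fluorescence from resazurin reduced to resorufin by metabolically active cells was the read-out, taken after ~3 h with CellTiter-Blue.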
(In general: The colour change of resazurin is a common sign of viable cells or microbes.)

The test system of experiment [2] is IL-6 (THP-1 cells). Put plainly: IL-6 inhibition in LPS-stimulated THP-1 cells (HTRF). As to conditions: Homo sapiens; for EC50: IL6 by HTRF, THP-1 cells, 500 ng/mL LPS, 22 hours; for inhibition at 10 µM: THP-1, read-out: percent inhibition at 10 M. The essentials: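 THP-1 cells, pre-cultured 24 h in 1% FBS medium, treated with compound 2 h at 37 °C, then stimulated with 500 ng/mL LPS for 22 h. Secreted IL-6 measured by HTRF as the 665/620 nm ratio. Values normalized to DMSO; EC50 from four-parameter fit, duplicates.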

For experiment [3], the system named is primary human fibroblasts derived from IPF patients (LL29 cells) treated with TGF-β1. The experiment can be described thus: Inhibition of the fibrotic process (αSMA staining) in TGF-β1-treated fibroblasts. To be noted: Fibroblast, 96 h; for EC50: % αSMA-positive LL29 cells, TGF-β1 20 ng/mL, 4 days; for inhibition at 10 µM: read-out: percent inhibition at 10 μM. The essentials: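 LL29 fibroblasts from IPF patients, 1,500 cells/well in F12 with 1% FBS, stimulated with TGF-β1; TGF-β1 plus DMSO wells as controls. Incubation 4 days, then SYTOX green 1 μM final for 30 min at room temperature. Fibrotic response read as αSMA staining.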

Experiment [4] has as its system primary human mesenchymal stem cells (hMSCs). Put plainly: Induction of chondrogenesis in hMSCs (Rhodamine B / Nile Red nodule imaging). To be noted: for EC50: concentration required to induce 50% levels of chondrogenesis vs TGF-β3 positive control, read-out: Conc (nM) of 50% TGF-β3 activity; for Emax: maximum activity relative to TGF-β3 (10 ng/mL) positive control, read-out: Max. Activity as % TGF-β3 activity. The essentials:
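Primary hMSCs at passage 3-6 were treated with compound; nodule area per well was normalized to the mean of 3 DMSO wells, averaged over 2-3 replicates, and the concentration giving 50% chondrogenesis relative to TGF-β3 control, plus maximum activity and its dose, was derived.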

The subject of experiment [5] is Wnt activity (Sp5-Luc reporter, SW480 colon carcinoma cells). The experiment can be described thus: Screening assay for Wnt activity (Sp5-Luc reporter gene assay in SW480 cells). As to conditions: Homo sapiens; for EC50: Sp5-Luc reporter, SW480 cells, incubated overnight. The essentials: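 SW480 colon carcinoma cells stably carrying Sp5 promoter (eight TCF/LEF sites)-driven firefly luciferase, plated at 4,000 cells/well in 1% FBS medium and incubated overnight at 37° C. Luminescence normalised to DMSO-only cells; EC50 from four-parameter variable-slope nonlinear regression.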
In general terms: A reporter such as luciferase makes a cellular process visible.

In general, inhibition refers to how much of the control response was suppressed.

Where only a bound is given, the exact number is not on record here.

Regarding `CC(C)C(=O)Nc1cncc(-c2ccc3[nH]nc(-c4cc5cnccc5[nH]4)c3c2)c1` [Compound 261, N-(5-(3-(1H-Pyrrolo[3,2-c]pyridin-2-yl)-1H-indazol-5-yl)pyridin-3-yl)isobutyramide], the EC50 in experiment [1] was determined as 333 nM; in experiment [2], 343 nM; in experiment [3] it was 362 nM; in experiment [4], 2700 nM; in experiment [5], 140 nM. Besides, in experiment [4], the Emax stood at 181%.

Take `O=C(Cc1ccccc1)Nc1cncc(-c2ccc3[nH]nc(-c4cc5cnccc5[nH]4)c3c2)c1` [Compound 262, N-(5-(3-(1H-Pyrrolo[3,2-c]pyridin-2-yl)-1H-indazol-5-yl)pyridin-3-yl)-2-phenylacetamide]: the EC50 in experiment [1] is 3490 nM; in experiment [2], 1700 nM; in experiment [3], 757 nM; in experiment [4], 10 nM; in experiment [5], 1760 nM. The Emax in experiment [4] was found to be 119%.

For the compound `c1cc2[nH]c(-c3n[nH]c4ccc(-c5cncc(CN6CCCC6)c5)cc34)cc2cn1` [Compound 266, 5-(5-(Pyrrolidin-1-ylmethyl)pyridin-3-yl)-3-(1H-pyrrolo[3,2-c]pyridin-2-yl)-1H-indazole], the EC50 in experiment [1] amounted to 514 nM; in experiment [2], 380 nM; in experiment [3] it was 1850 nM; in experiment [5] it was 790 nM. Further, in experiment [4], the Emax came out at 26%.

As for `c1cc2[nH]c(-c3n[nH]c4ccc(-c5cncc(CN6CCCCC6)c5)cc34)cc2cn1` [Compound 267, 5-(5-(Piperidin-1-ylmethyl)pyridin-3-yl)-3-(1H-pyrrolo[3,2-c]pyridin-2-yl)-1H-indazole], the EC50 in experiment [1] was determined as 422 nM; in experiment [2] it was 288 nM; in experiment [3] it was 571 nM; in experiment [4] it was 100 nM; in experiment [5], 685 nM. In addition, the Emax in experiment [4] is 122%.

With `CC(C)(C)CC(=O)Nc1cncc(-c2ccc3[nH]nc(-c4cc5cnccc5[nH]4)c3c2)c1` [Compound 268, N-(5-(3-(1H-Pyrrolo[3,2-c]pyridin-2-yl)-1H-indazol-5-yl)pyridin-3-yl)-3,3-dimethylbutanamide], the EC50 came to 236 nM in experiment [1]; 94 nM in experiment [2]; 199 nM in experiment [3]; 10 nM in experiment [4]; 120 nM in experiment [5]. The Emax in experiment [4] worked out at 208%.

On to `CCCCC(=O)Nc1cncc(-c2ccc3[nH]nc(-c4cc5cnccc5[nH]4)c3c2)c1` [Compound 271, N-(5-(3-(1H-Pyrrolo[3,2-c]pyridin-2-yl)-1H-indazol-5-yl)pyridin-3-yl)pentanamide], for which the EC50 turned out to be 491 nM in experiment [1]; 149 nM in experiment [2]; 192 nM in experiment [3]; 900 nM in experiment [4]; 275 nM in experiment [5]. Moreover, the Emax in experiment [4] was determined as 67%.

With `O=C(Nc1cncc(-c2ccc3[nH]nc(-c4cc5cnccc5[nH]4)c3c2)c1)C1CCC1` [Compound 273, N-(5-(3-(1H-Pyrrolo[3,2-c]pyridin-2-yl)-1H-indazol-5-yl)pyridin-3-yl)cyclobutanecarboxamide], the EC50 in experiment [1] was 441 nM; in experiment [2], 118 nM; in experiment [3], 95 nM; in experiment [4] it was 10 nM; in experiment [5], 75 nM. Further, in experiment [4], the Emax turned out to be 213%.

For the compound `O=C(Nc1cncc(-c2ccc3[nH]nc(-c4cc5cnccc5[nH]4)c3c2)c1)C1CCCCC1` [Compound 275, N-(5-(3-(1H-Pyrrolo[3,2-c]pyridin-2-yl)-1H-indazol-5-yl)pyridin-3-yl)cyclohexanecarboxamide], the EC50 was found to be 255 nM in experiment [1]; 77 nM in experiment [2]; 110 nM in experiment [3]; 30 nM in experiment [4]; 285 nM in experiment [5]. Besides, the Emax in experiment [4] was found to be 155%.

Regarding `c1cc2[nH]c(-c3n[nH]c4ccc(-c5cncnc5)cc34)cc2cn1` [Compound 279, 5-(Pyrimidin-5-yl)-3-(1H-pyrrolo[3,2-c]pyridin-2-yl)-1H-indazole], the EC50 in experiment [1] worked out at 2300 nM; in experiment [2], 1840 nM; in experiment [3] it was 686 nM; in experiment [5], 1480 nM. Further, the Emax in experiment [4] is 22%.

Regarding `Cc1ccncc1-c1ccc2[nH]nc(-c3cc4c(-c5ccoc5)nccc4[nH]3)c2c1` [Compound 313, 3-(4-(Furan-3-yl)-1H-pyrrolo[3,2-c]pyridin-2-yl)-5-(4-methylpyridin-3-yl)-1H-indazole], the EC50 in experiment [1] worked out at 1580 nM; in experiment [2], 649 nM; in experiment [3], 286 nM; in experiment [4], 2700 nM; in experiment [5], 614 nM. Moreover, the Emax in experiment [4] was 153%.

Take `c1cc2[nH]c(-c3n[nH]c4ccc(-c5cncc(CN6CCCCC6)c5)cc34)cc2c(-c2ccoc2)n1` [Compound 323, 3-(4-(Furan-3-yl)-1H-pyrrolo[3,2-c]pyridin-2-yl)-5-(5-(piperidin-1-ylmethyl)pyridin-3-yl)-1H-indazole]: the EC50 in experiment [1] was 3420 nM; in experiment [2], above 10000 nM; in experiment [3], 1150 nM; in experiment [4] it was 10 nM; in experiment [5], 890 nM. For the same compound, the inhibition at 10 µM in experiment [2] came out at 16.6%. In addition, the Emax in experiment [4] came out at 177%.

As for `c1ncc(-c2ccc3[nH]nc(-c4cc5c(-c6ccoc6)nccc5[nH]4)c3c2)cn1` [Compound 335, 3-(4-(Furan-3-yl)-1H-pyrrolo[3,2-c]pyridin-2-yl)-5-(pyrimidin-5-yl)-1H-indazole], the EC50 was 438 nM in experiment [1], 508 nM in experiment [2], 349 nM in experiment [3] and 1910 nM in experiment [5]. Further, in experiment [4], the Emax worked out at 40%.

On to `Cc1ccncc1-c1ccc2[nH]nc(-c3cc4c(-c5cc(F)cc(CNS(C)(=O)=O)c5)nccc4[nH]3)c2c1` [Compound 481, N-(3-Fluoro-5-(2-(5-(4-methylpyridin-3-yl)-1H-indazol-3-yl)-1H-pyrrolo[3,2-c]pyridin-4-yl)benzyl)methanesulfonamide], for which the EC50 in experiment [1] came to 500 nM; in experiment [2], 103 nM; in experiment [3] it was 528 nM; in experiment [4] it was 300 nM; in experiment [5], 304 nM. In addition, the Emax in experiment [4] was 267%.

With `CC(C)Nc1cncc(-c2ccc3[nH]nc(-c4cc5c(-c6cc(F)cc(CNS(C)(=O)=O)c6)nccc5[nH]4)c3c2)c1` [Compound 488, N-(3-Fluoro-5-(2-(5-(5-(isopropylamino)pyridin-3-yl)-1H-indazol-3-yl)-1H-pyrrolo[3,2-c]pyridin-4-yl)benzyl)methanesulfonamide], the EC50 in experiment [1] worked out at 358 nM; in experiment [2], 40 nM; in experiment [3], 125 nM; in experiment [4], 300 nM; in experiment [5], 151 nM. Besides, the Emax in experiment [4] is 191%.

Consider `CS(=O)(=O)NCc1cc(F)cc(-c2nccc3[nH]c(-c4n[nH]c5ccc(-c6ccncc6)cc45)cc23)c1` [Compound 494, N-(3-Fluoro-5-(2-(5-(pyridin-4-yl)-1H-indazol-3-yl)-1H-pyrrolo[3,2-c]pyridin-4-yl)benzyl)methanesulfonamide], for which the EC50 in experiment [1] was above 10000 nM; in experiment [2] it was above 10000 nM; in experiment [3], above 10000 nM; in experiment [4], 900 nM; in experiment [5] it was above 10000 nM. In addition, the inhibition at 10 µM in experiment [1] stood at 9.5%; in experiment [2] it was 44.6%; in experiment [3], 0%; in experiment [5] (SW480, read-out: percent inhibition at 10 μM), 19%. Further, the Emax in experiment [4] stood at 66%.

Take `CS(=O)(=O)NCc1cc(F)cc(-c2nccc3[nH]c(-c4n[nH]c5ccc(-c6cncc(CN7CCC(F)(F)C7)c6)cc45)cc23)c1` [Compound 502, N-(3-(2-(5-(5-((3,3-Difluoropyrrolidin-1-yl)methyl)pyridin-3-yl)-1H-indazol-3-yl)-1H-pyrrolo[3,2-c]pyridin-4-yl)-5-fluorobenzyl)methanesulfonamide]: the EC50 in experiment [1] was 230 nM; in experiment [2], 63 nM; in experiment [3] it was 160 nM; in experiment [4] it was 300 nM; in experiment [5] it was 172 nM. In experiment [4], the Emax was 175%.

Consider `CS(=O)(=O)NCc1cc(F)cc(-c2nccc3[nH]c(-c4n[nH]c5ccc(-c6cncnc6)cc45)cc23)c1` [Compound 503, N-(3-Fluoro-5-(2-(5-(pyrimidin-5-yl)-1H-indazol-3-yl)-1H-pyrrolo[3,2-c]pyridin-4-yl)benzyl)methanesulfonamide], for which the EC50 in experiment [1] is above 10000 nM; in experiment [2] it was 35 nM; in experiment [3] it was above 10000 nM; in experiment [5], 3080 nM. In addition, the inhibition at 10 µM in experiment [1] amounted to 32.7%; in experiment [3], 15.5%. Further, the Emax in experiment [4] is 40%.
